In PubChem BioAssay (NCI) one finds TGI data, which are given here for 19 compounds.

What all share (assay): NCI anticancer screen, dose series, 48 h
In assay [1] the test system is A498 renal.
Assay [2] relates to A549 NSCLC.
For assay [3], the system named is ACHN renal.
Assay [4] has as its system BT-549 breast.
Assay [5] relates to M14 melanoma.
Assay [6] deals with MDA-N.
In assay [7] the test system is NCI-H23 lung.
For assay [8], the system named is OVCAR-4 ovarian.
The subject of assay [9] is PC-3 prostate.
The test system of assay [10] is SF-268 CNS.
The test system of assay [11] is NCI-H226 lung.
Assay [12] deals with TK-10 renal.

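Assay format: 96-well plates, 48-hour exposure. TGI is the concentration that stops growth completely.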

Take `CCN(CC)c1ccc2cc(-c3nnc(-c4ccccc4O)o3)c(=O)oc2c1`: the TGI is 29.6 µM in [1]; 29.1 µM in assay [2]; 24.2 µM in assay [3]; 24.4 µM in [4]; 24.3 µM in [5]; 30.7 µM in [6]. Also, the TGI stood at 24.8 µM in assay [7], 27.5 µM in [8], 22.4 µM in assay [9] and 28.3 µM in [10].
As to `CCCCCCCCCCCCOc1ccc(/C=C/C2=[N+](CCCl)CCO2)cc1`, the TGI in [1], in [2], in assay [3], in assay [4], in assay [5] and in assay [6] was more than 100 µM each time. For the same compound, the TGI in assay [11], in assay [8], in [9] and in assay [12] was more than 100 µM each time.
On to `COc1cc([C@@]23OC[C@@H]4[C@@H](OC[C@@H]42)c2cc4c(cc23)OCO4)cc(OC)c1OC`, for which the TGI in [1] was 15.1 µM; in assay [2], more than 100 µM; in assay [3] it was more than 100 µM; in assay [4], more than 66.4 µM; in [5], more than 100 µM; in assay [6], more than 100 µM. In addition, the TGI in assay [7], in assay [8], in [9], in [10] and in assay [12] was more than 100 µM in each case.
With `O=C(CCCl)NNC1=NCCCCN1`, the TGI in assay [2], in [3], in [4], in assay [5], in assay [6] and in [11] was more than 100 µM throughout. Further, the TGI in assay [7], in assay [8], in assay [9], in assay [10] and in assay [12] was more than 100 µM each time.
In the case of `CCOC(=O)c1nc2ccccc2nc1Oc1cc(OC)c(OC)c(OC)c1`, the TGI in [1], in assay [2], in assay [3], in [4], in assay [5] and in assay [6] was more than 100 µM each time. Further, the TGI in [7], in assay [8], in [9], in assay [10] and in assay [12] was more than 100 µM each time.
Regarding `Cc1ccc(/C=C2\CCCC(CN(C)C)C2=O)cc1` (configuration not stated), the TGI in assay [1] was determined as 27.4 µM; in [2], 30.9 µM; in [3], 7.19 µM; in [4], 6.4 µM; in assay [5] it was 3.31 µM; in assay [6], 3.85 µM. The TGI is 6.82 µM in assay [11]; 4.97 µM in assay [7]; 3.8 µM in assay [8]; 8.9 µM in [9]; 8.26 µM in assay [12].
As to `O=C(CN1CCOCC1)c1ccc2c(c1)oc(=O)n2CCN1CCCC1`, the TGI in assay [1], in assay [3], in assay [4], in assay [5], in assay [6] and in [11] was more than 100 µM in each case. In addition, the TGI in [7], in assay [9], in [10] and in assay [12] was more than 100 µM in each case.
In the case of `O=c1oc2ccc(Cl)cc2cc1-c1cn2ccccc2n1`, the TGI is more than 89.3 µM in [2]; 8.54 µM in assay [3]; more than 100 µM in assay [4]; more than 100 µM in assay [5]; more than 100 µM in assay [6]; more than 94.8 µM in [11]. The TGI in assay [7] is 46.8 µM; in assay [8] it was 29.8 µM; in assay [9] it was more than 100 µM; in [10], 99.3 µM; in assay [12], 35.3 µM.
On to `C(=N\OCCc1ccccc1)/c1cccnc1`, for which the TGI in assay [2], in assay [3], in assay [4], in assay [5], in [6] and in [11] was more than 100 µM throughout. Further, the TGI in assay [7], in [8], in assay [9], in assay [10] and in assay [12] was more than 100 µM each time.
For the compound `COc1cc(S(=O)(=O)Nc2ccc(-c3csc(N4C(=O)C(Cl)C4c4ccccc4)n3)cc2)ccc1Cl` (configuration not stated), the TGI in [1] was 68.8 µM; in [2] it was more than 100 µM; in assay [3], more than 100 µM; in assay [4], 83.2 µM; in assay [5], 59.2 µM; in [6] it was more than 100 µM. For the same compound, the TGI in assay [7] is 89.3 µM; in [8], 87.3 µM; in assay [9], more than 100 µM; in assay [10] it was more than 100 µM; in assay [12] it was more than 100 µM.
On to `Cc1ccc(N=NN(C)C(=O)C(C)N)cc1` (configuration not stated), for which the TGI in [3], in assay [4], in assay [5], in [6], in assay [11] and in assay [7] was more than 100 µM each time. Also, the TGI in assay [8], in [9], in [10] and in assay [12] was more than 100 µM each time.
Regarding `Fc1cccc(Cl)c1C1SCc2nc3cc4ccccc4cc3n21` (configuration not stated), the TGI in assay [2], in assay [3], in assay [4], in assay [5], in assay [6] and in assay [11] was more than 100 µM in each case. Besides, the TGI in assay [7], in assay [8], in assay [9], in assay [10] and in [12] was more than 100 µM each time.
With `O=C(O)CNn1c(SCC(=O)O)nnc(/C=C/c2c(O)ccc3ccccc23)c1=O`, the TGI was more than 100 µM in assay [1]; more than 100 µM in assay [2]; more than 100 µM in assay [3]; 63.8 µM in [4]; 43.5 µM in [5]; more than 100 µM in [6]. Moreover, the TGI in [7] was 52.6 µM; in assay [8], more than 100 µM; in assay [9], more than 100 µM; in [10], 97.3 µM.
`NC(=O)/C=c1/c2ccccc2n2nc3ccccc3c12`: the TGI in assay [1] was 79.4 µM; in [2], more than 100 µM; in [3], 29.1 µM; in assay [4], 95.9 µM; in assay [5], 71.7 µM; in assay [6], 35.6 µM. Moreover, the TGI is 64.1 µM in assay [7]; 39.4 µM in [8]; more than 100 µM in [9]; 47.5 µM in assay [10]; more than 100 µM in [12].
As to `COc1ccc(N=Nc2c(C)c(C#N)c(=S)n(C3OC(CO)C(O)C(O)C3O)c2C)cc1` (configuration not stated), the TGI in [2], in [3], in assay [4], in assay [5], in assay [6] and in assay [7] was more than 100 µM in each case. In addition, the TGI in [8], in [9], in assay [10] and in assay [12] was more than 100 µM each time.
On to `NC(=O)C(=O)C(c1ccccc1)S(=O)(=O)Cc1ccccc1` (configuration not stated), for which the TGI in [2], in assay [3], in assay [4], in assay [5], in assay [6] and in assay [11] was more than 100 µM each time. Moreover, the TGI in assay [7], in assay [8], in assay [9], in assay [10] and in assay [12] was more than 100 µM each time.
Turning to `Clc1ccc(-c2ccc(-c3nnc(COc4ccc(OCc5nnc(-c6ccc(-c7ccc(Cl)cc7Cl)o6)o5)c(Cl)c4)o3)o2)c(Cl)c1`, the TGI in assay [1], in assay [2], in [3], in [4], in assay [5] and in [6] was more than 100 µM each time. Further, the TGI in assay [11], in assay [7], in assay [8], in [10] and in [12] was more than 100 µM in each case.
Turning to `O=C(Cc1nc2ncccc2[nH]c1=O)c1c[nH]c2ccccc12`, the TGI stood at 31.7 µM in assay [1]; 47.8 µM in assay [2]; 30.1 µM in assay [3]; 62 µM in assay [4]; 43.1 µM in assay [5]; 45.4 µM in assay [6]. Moreover, the TGI in assay [7] amounted to 54 µM; in assay [9], 29.9 µM; in [10] it was 30.5 µM; in assay [12] it was 30.4 µM.
Turning to `C=C(C)C(O)C(O)C[C@@H](C)C1CC[C@]23C[C@]12CCC1[C@@]2(C)CCC(OC(C)=O)C(C)(C)C2CC(OC2OC(CO)C(O)C(O)C2O)[C@]13C` (some centres not stated), the TGI in assay [2] was more than 100 µM; in assay [3] it was more than 100 µM; in assay [4], 27.6 µM; in [5] it was 28.4 µM; in assay [6], 31.1 µM; in assay [11] it was 39.9 µM. Besides, the TGI in assay [7] was 41.6 µM; in [8], 41.8 µM; in assay [9] it was 34.7 µM; in [10], 33 µM; in assay [12] it was 56.2 µM.
